ChEMBL document CHEMBL6153017, “Progress on the mechanism of natural products alleviating androgenetic alopecia” (2024)

Legend:
Assay type in all cases: functional
Hair follicle [1] = assay: Upregulation of Gli mRNA expression in human hair follicle assessed as fold change at 0.5 uM measured for 48 hrs by qRT-PCR analysis
Hair follicle [2] = assay: Upregulation of Smo mRNA expression in human hair follicle assessed as fold change at 0.5 uM measured for 48 hrs by qRT-PCR analysis
Hair follicle [3] = assay: Upregulation of PTCH mRNA expression in human hair follicle assessed as fold change at 0.5 uM measured for 48 hrs by qRT-PCR analysis
Hair follicle [4] = assay: Upregulation of RBPJ mRNA expression in human hair follicle assessed as fold change at 5 ug/ml; settings: dose 5 µg/ml
Hair follicle [5] = assay: Upregulation of SHH mRNA expression in human hair follicle assessed as fold change at 0.5 uM measured for 48 hrs by qRT-PCR analysis

## O=C(O[C@@H]1Cc2c(O)cc(O)cc2O[C@@H]1c1cc(O)c(O)c(O)c1)c1cc(O)c(O)c(O)c1 [EPIGALOCATECHIN GALLATE]
Hair follicle [1]
  fold change (FC): 1.67
Hair follicle [2]
  fold change (FC): 4.71
Hair follicle [3]
  fold change (FC): 4.18
Hair follicle [4]
  fold change (FC): 7
Hair follicle [5]
  fold change (FC): 4.48
